Experimental findings from patent US12492208B2, “Crystal of pyrimidine compound” (TAIHO PHARMACEUTICAL CO., LTD., priority 2020, dated 2025) are described below.

Data set [1] can be described thus: Blood concentration measurement test. In kind it is in vivo, female rats (Crl:CD (SD)). Conditions: rat; for AUC(0-t): read-out: AUC0-6hr. As for the experimental part:
Blood concentration measurement tests were conducted for the type I crystal of compound (I), the type II crystal of compound (I), and the type II crystal of compound (I) with 1 equivalent of fumarate obtained in the Examples. Specifically, 0.5% HPMC containing 0.1N hydrochloric acid was used for the type I crystal of compound (I) and 0.5% HPMC was used for the type II crystal of compound (I) and the type II crystal of compound (I) with 1 equivalent of fumaric acid to convert each crystal into the compound (I) (free-form) in terms of molecular weight so as to prepare suspensions of 100 mg/10 mL and 300 mg/10 mL. These administration solutions were orally administered to female rats (Crl:CD (SD), Charles River Laboratories Japan, Inc.) kept under feeding conditions at a volume of 10 mL/kg body weight using an oral administration sonde. After administration, the rats were returned to the rat cage and their conditions were checked. Water and feeding were freely available in the cage. At 0.5, 1, 2, 4, and 6 hours after administration, the rats were anesthetized with isoflurane, and approximately 80 μL of blood was collected from the jugular vein using a heparin-coated syringe and an injection needle (25 G).
The collected blood was ice-cooled and plasma was separated by centrifugation. After the blood collection was completed, the rats were returned to the rat cage and the state after awakening of anesthesia was checked. After the final blood collection, the depth of isoflurane anesthesia was checked. Then, the limbs were fixed in a supine position with a small animal experiment holding apparatus, and the abdomen was opened such that each rat was euthanized by exsanguination through an incision in the abdominal aorta and vena cava.
AUC0-6 hr (Area under the blood concentration-time curve for 0 to 6 hours after administration calculated by the trapezoidal method), Cmax (maximum blood concentration), and Tmax (time to reach maximum blood concentration) were calculated from the concentration of the compound (I) in each plasma measured by the MRM method using LC/MS/MS and quantified from the calibration curve using Phoenix WinNonlin (v6.4.0,Certara USA, Inc.).

The nature of a further data set: Solid stability test. The format is physicochemical. As for the experimental part:
The free-form type II crystals of the compound (I) and type II crystals thereof with 1 equivalent of fumaric acid obtained in the Examples and Comparative Examples were evaluated for solid stability after storage for 4 weeks. • Storage condition: 60° C. (closed system) • Storage period: 4 weeks • Stored amount: Approximately 30 mg • Storage container: Glass bottle
Approximately 1 mg of a sample was weighed, dissolved in approximately 1 mL of a liquid mixture of water/acetonitrile (1:1), and 5 μL of this solution was accurately measured. Changes in the amount of related substances (the amount of substances detected other compound (I)) were analyzed by HPLC by the following method. Hplc Analysis Method (Stability Test)
The amount of related substances in the sample solution was measured by HPLC analysis. Handling of the apparatuses, including data processing, was in accordance with the methods and procedures instructed for each apparatus. • Column: XSelect CSH C18 (4.6×150 mm, 3.5 μm) manufactured by Waters • UV detection: 246 nm • Column temperature: 40° C. • Flow rate: 1.0 mL/min • Sample cooler: 5° C. • Sample concentration: 1 mg/mL • Mobile phase A: Liquid mixture of 5 mmol/L ammonium formate buffer (pH 6.5)/acetonitrile (9:1) • Mobile phase B: Acetonitrile

The nature of data set [2]: Dynamic vapor sorption (DVS) test. The conditions noted are these: for hygroscopicity determination: from mass increase under 95% relative humidity; for Weight change rate, Adsorption / Weight change rate, Desorption: 25° C. The format is physicochemical. As for the experimental part: Dynamic vapor sorption tests were conducted using a type II crystal of compound (I) with1 equivalent of fumaric acid, a free-form type II crystal of the same, a free-form type I crystal of the same, a type V crystal of the same with 1 equivalent of fumaric acid, and a crystal of the same with 1 equivalent of L-tartaric acid obtained in the Examples and Reference Examples.
The dynamic vapor sorption test was conducted for measurement according to the following conditions.
Approximately 10 mg of each sample was packed in a dedicated quartz holder, and the weight of the sample at each humidity was continuously measured and recorded under the following conditions.

Setting [3] is: oral, 100 mg/kg, listed as Type II crystal of compound (I) with 1 equivalent of fumaric acid.
[4] abbreviates: oral, 300 mg/kg, listed as Type II crystal of compound (I) with 1 equivalent of fumaric acid.
The mark [5] stands for this setting: 60° C. (closed system), 4 weeks.
Setting [6] is: 60° C. (closed system), 4 weeks, listed as Type II crystal with 1 equivalent of fumaric acid.
[7] abbreviates: before storage, listed as Type II crystal with 1 equivalent of fumaric acid.
The mark [8] stands for this setting: female, Crl:CD (SD), plasma, po, 100 mg/kg.
Setting [9] is: oral, 300 mg/kg, listed as Type I crystal of compound (I) (with hydrochloric acid).
The mark [10] stands for this setting: oral, listed as type I crystal of compound (I) with hydrochloric acid.

Like-named read-outs stand apart in the source and are kept apart here.

With `C=CC(=O)N1C[C@H](n2c(C#CC3CC3)c(C(=O)N[C@H](C)c3ccccc3)c3c(N)ncnc32)C[C@@H]1C` [type II crystal of compound (I) with 1 equivalent of fumaric] [7-((3R,5S)-1-acryloyl-5-methylpyrrolidin-3-yl)-4-amino-6-(cyclopropylethynyl)-N—((R)-1-phenylethyl)-7H-pyrrolo[2,3-d]pyrimidine-5-carboxamide], in data set [1] (oral), the “AUC 0-6 hr increase when the dose was increased from 100 mg/kg to 300 mg/kg” value was 1.9 times and the “Cmax increase when the dose was increased from 100 mg/kg to 300 mg/kg” value stood at 1.9 times. Besides, in data set [1] (setting [3]), the AUC0-6hr stood at 6.14 µM·h, the Cmax was 2740 nM and the time to peak (Tmax) was determined as 75 min. In data set [1] (oral, 300 mg/kg), the “AUC0-6 hr relative to the value of the type I crystal of compound (I) with the acid” value is 2.4 times, the “AUC0-6 hr relative to the value of the type II crystal of compound (I)” value came out at 2.4 times, the “Cmax relative to the value of the type I crystal of compound (I) with the acid” value worked out at 1.7 times and the “Cmax relative to the value of the type II crystal of compound (I)” value came to 1.4 times. In data set [1] (setting [4]), the AUC0-6hr was 11.9 µM·h, the Cmax amounted to 5340 nM and the time to peak (Tmax) came to 30 min. In addition, in the data set “Solid stability test” (setting [5]), the “change in the powder X-ray diffraction pattern” value is “no change” and the “increase in related substances” value is on record as “almost no increase”. Besides, in the data set “Solid stability test” (setting [6]), the “Amount of related substances after storage” value worked out at 0.15% and the “Chemical purity after storage” value turned out to be 99.85%. For the same compound, in “Solid stability test” (setting [7]), the “Amount of related substances before storage” value is recorded as 0.15% and the “Chemical purity before storage” value is listed as 99.85%. For the same compound, the hygroscopicity determination result in data set [2] is given as “almost non-hygroscopic”. Also, in data set [2] (relative humidity 5%), the “Weight change rate, Adsorption” value amounted to 0.01% and the “Weight change rate, Desorption” value came to 0.04%. Moreover, in data set [2] (relative humidity 20%), the “Weight change rate, Adsorption” value came to 0.11% and the “Weight change rate, Desorption” value is recorded as 0.13%. In addition, in data set [2] (relative humidity 40%), the “Weight change rate, Adsorption” value worked out at 0.18% and the “Weight change rate, Desorption” value stood at 0.20%. Further, in data set [2] (relative humidity 60%), the “Weight change rate, Adsorption” value was found to be 0.27% and the “Weight change rate, Desorption” value was determined as 0.30%. Besides, in data set [2] (relative humidity 80%), the “Weight change rate, Adsorption” value is 0.34% and the “Weight change rate, Desorption” value was 0.34%. Besides, in data set [2] (relative humidity 95%), the “Weight change rate, Adsorption” value came to 0.38% and the “Weight change rate, Desorption” value turned out to be 0.38%.

As to `C=CC(=O)N1C[C@H](n2c(C#CC3CC3)c(C(=O)N[C@H](C)c3ccccc3)c3c(N)ncnc32)C[C@@H]1C` [type V crystal of compound (I) with 1 equivalent of fumaric ] [7-((3R,5S)-1-acryloyl-5-methylpyrrolidin-3-yl)-4-amino-6-(cyclopropylethynyl)-N—((R)-1-phenylethyl)-7H-pyrrolo[2,3-d]pyrimidine-5-carboxamide], in data set [2], the hygroscopicity determination entry was “almost non-hygroscopic”. Moreover, the “Weight change rate, Adsorption” value came to 0.01% in data set [2] (relative humidity 5%); 0.11% in data set [2] (relative humidity 20%); 0.21% in data set [2] (relative humidity 40%); 0.33% in data set [2] (relative humidity 60%); 0.47% in data set [2] (relative humidity 80%). Besides, the “Weight change rate, Desorption” value in data set [2] (relative humidity 5%) is given as 0.06%; in data set [2] (relative humidity 20%) it was 0.16%; in data set [2] (relative humidity 40%), 0.27%; in data set [2] (relative humidity 60%), 0.39%; in data set [2] (relative humidity 80%), 0.51%; in data set [2] (relative humidity 95%), 0.59%.

In the case of `C=CC(=O)N1C[C@H](n2c(C#CC3CC3)c(C(=O)N[C@H](C)c3ccccc3)c3c(N)ncnc32)C[C@@H]1C` [free-form type I crystal of compound (I), 7-((3R,5S)-1-acryloyl-5-methylpyrrolidin-3-yl)-4-amino-6-(cyclopropylethynyl)-N—((R)-1-phenylethyl)-7H-pyrrolo[2,3-d]pyrimidine-5-carboxamide], the Cmax in data set [1] (setting [8]) is 2670 nM; in data set [1] (setting [9]) it was 2250 nM. Besides, the AUC(0-t) in data set [1] (setting [8]) came to 7.42 µM·h; in data set [1] (female, Crl:CD (SD), plasma, po, 300 mg/kg), 7.11 µM·h. Also, the Tmax in data set [1] (female, Crl:CD (SD), plasma, po, 100 mg/kg, read-out: Tmax) came to 45 min; in data set [1] (setting [9]), 195 min. In data set [1] (setting [10]), the “AUC 0-6 hr increase when the dose was increased from 100 mg/kg to 300 mg/kg” value is given as 1.0 times. Besides, in data set [1] (setting [10]), the “Cmax increase when the dose was increased from 100 mg/kg to 300 mg/kg” value was determined as 0.8 times. Also, the hygroscopicity determination entry in data set [2] was “almost non-hygroscopic”. Besides, the “Weight change rate, Adsorption” value in data set [2] (relative humidity 5%) stood at 0.01%; in data set [2] (relative humidity 20%), 0.04%; in data set [2] (relative humidity 40%) it was 0.10%; in data set [2] (relative humidity 60%), 0.26%; in data set [2] (relative humidity 80%), 0.50%. Further, the “Weight change rate, Desorption” value in data set [2] (relative humidity 5%) was found to be 0.01%; in data set [2] (relative humidity 20%), 0.04%; in data set [2] (relative humidity 40%), 0.13%; in data set [2] (relative humidity 60%), 0.60%; in data set [2] (relative humidity 80%) it was 0.69%; in data set [2] (relative humidity 95%), 0.72%.

Regarding `C=CC(=O)N1C[C@H](n2c(C#CC3CC3)c(C(=O)N[C@H](C)c3ccccc3)c3c(N)ncnc32)C[C@@H]1C` [crystal of compound (I) with 1 equivalent of L-tartaric acid] [7-((3R,5S)-1-acryloyl-5-methylpyrrolidin-3-yl)-4-amino-6-(cyclopropylethynyl)-N—((R)-1-phenylethyl)-7H-pyrrolo[2,3-d]pyrimidine-5-carboxamide], the hygroscopicity determination entry in data set [2] is “highly hygroscopic”. The “Weight change rate, Adsorption” value stood at 0.50% in data set [2] (relative humidity 5%); 1.05% in data set [2] (relative humidity 20%); 1.60% in data set [2] (relative humidity 40%); 2.16% in data set [2] (relative humidity 60%); 3.26% in data set [2] (relative humidity 80%); 6.41% in data set [2] (relative humidity 95%). The “Weight change rate, Desorption” value in data set [2] (relative humidity 5%) was 0.54%; in data set [2] (relative humidity 20%), 1.16%; in data set [2] (relative humidity 40%) it was 1.67%; in data set [2] (relative humidity 60%), 2.38%; in data set [2] (relative humidity 80%), 3.64%; in data set [2] (relative humidity 95%), 6.41%.
